One block for each compound: values may come before it.
Experiment: photoluminescence quantum yield (fraction); solvent given as SMILES
[1] = in O=P(c1ccccc1)(c1ccccc1)c1ccccc1Oc1ccccc1P(=O)(c1ccccc1)c1ccccc1

SMILES: CC1=CC(C)=[N+]2C1=C(c1ccc(N(C)C)cc1)c1c(C)cc(C)n1[B-]2(F)F
photoluminescence quantum yield (in C1CCOC1): 0.014 | photoluminescence quantum yield (in CC#N): 0.005 | photoluminescence quantum yield (in CC(=O)C(C)(C)C): 0.015 | photoluminescence quantum yield (in CC(C)=O): 0.009 | photoluminescence quantum yield (in CCCCCC): 0.441 | photoluminescence quantum yield (in CCOC(C)=O): 0.011

SMILES: F[B-]1(F)n2c(Nc3cccc4cccnc34)ccc2C(c2ccccc2)=C2C=CC(Cl)=[N+]21
photoluminescence quantum yield (in C1CCCCC1): 0.17 | photoluminescence quantum yield (in CC#N): 0.0024 | photoluminescence quantum yield (in Cc1ccccc1): 0.04 | photoluminescence quantum yield (in ClC(Cl)Cl): 0.01

SMILES: CCCCCCC1(CCCCCC)c2cc(-c3ccc(-c4ccc(-c5ccc(-c6ccc7c(c6)C(CCCCCC)(CCCCCC)c6cc(-n8c9ccccc9c9ccccc98)ccc6-7)s5)c5nsnc45)s3)ccc2-c2ccc(-n3c4ccccc4c4ccccc43)cc21
photoluminescence quantum yield (in ClCCl): 0.39

SMILES: O=C(O)c1ccc2ccc3cccc4ccc1c2c34
photoluminescence quantum yield (in C1CCOC1): 0.57 | photoluminescence quantum yield (in CC#N): 0.11 | photoluminescence quantum yield (in CCCCCC): 0.56 | photoluminescence quantum yield (in CCO): 0.038 | photoluminescence quantum yield (in CN(C)C=O): 0.003 | photoluminescence quantum yield (in CO): 0.097 | photoluminescence quantum yield (in Cc1ccccc1): 0.73 | photoluminescence quantum yield (in ClCCl): 0.63

SMILES: CCCCC(CC)CN1C(=O)c2cc(Oc3ccc(C(C)(C)C)cc3)c3c4c(Oc5ccc(OC)cc5)cc5c6c(cc(Oc7ccc(OC)cc7)c(c7c(Oc8ccc(C(C)(C)C)cc8)cc(c2c37)C1=O)c64)C(=O)N(c1c(C(C)C)cccc1C(C)C)C5=O (stereo not given)
photoluminescence quantum yield (in Cc1ccccc1): 0.57

SMILES: N#C/C(=C\c1ccc(C#N)cc1)c1nc(-c2ccccc2)cs1
photoluminescence quantum yield (in CC#N): 0.18 | photoluminescence quantum yield (in CCO): 0.18 | photoluminescence quantum yield (in CN(C)C=O): 0.272 | photoluminescence quantum yield (in Cc1ccccc1): 0.098 | photoluminescence quantum yield (in ClCCl): 0.131

SMILES: c1ccc(C2(c3ccccc3)c3ccc4ccc5ccccc5c4c3-c3c2ccc2ccc4ccccc4c32)cc1
photoluminescence quantum yield (in ClCCl): 0.4

SMILES: CCC1(CC)c2cc(N(C)C)ccc2-c2ccc(C(F)(F)F)cc21
photoluminescence quantum yield (in C1CCCCC1): 0.67 | photoluminescence quantum yield (in CC#N): 0.04 | photoluminescence quantum yield (in CCO): 0.58 | photoluminescence quantum yield (in CCOCC): 0.63 | photoluminescence quantum yield (in CS(C)=O): 0.53 | photoluminescence quantum yield (in ClCCl): 0.44 | photoluminescence quantum yield (in c1ccccc1): 0.59

SMILES: CCOC(=O)COc1ccc(/C=C/C2=C3c4ccccc4C(c4ccc[nH]4)=[N+]3[B-](F)(F)n3ccc(C)c32)cc1
photoluminescence quantum yield (in C1CCOC1): 0.003 | photoluminescence quantum yield (in CC#N): 0.003 | photoluminescence quantum yield (in CCCCCC): 0.009 | photoluminescence quantum yield (in CO): 0.005 | photoluminescence quantum yield (in Cc1ccccc1): 0.004 | photoluminescence quantum yield (in ClCCl): 0.003

SMILES: CC1(C)c2ccccc2N(c2ccc(-c3nnc(-c4ccc(-n5c6ccccc6c6ccccc65)cc4)o3)cc2)c2ccccc21
photoluminescence quantum yield [1]: 0.67

SMILES: COc1cc(C(=O)O)ccc1O
photoluminescence quantum yield (in O): 0.03

SMILES: COCCC1=Cc2nc1ccc1[nH]c(cc1CCOC)c1nc(ccc3[nH]c2cc3CCOC)C(CCOC)=C1
photoluminescence quantum yield (in Cc1ccccc1): 0.47

SMILES: CC1(C)c2ccccc2N(c2ccc3c(c2)S(=O)(=O)c2cc(N4c5ccccc5C(C)(C)c5ccccc54)ccc2C3(C)C)c2ccccc21
photoluminescence quantum yield [1]: 0.62

SMILES: CCN(CC)c1ccc2cc(/C=C/C3=C4CC/C(=C\c5cc6ccc(N(CC)CC)cc6oc5=O)C4=[O+][B-](F)(F)O3)c(=O)oc2c1
photoluminescence quantum yield (in C1COCCO1): 0.3 | photoluminescence quantum yield (in CC(C)=O): 0.18 | photoluminescence quantum yield (in CCOC(C)=O): 0.2 | photoluminescence quantum yield (in CS(C)=O): 0.0068 | photoluminescence quantum yield (in Cc1ccccc1): 0.4 | photoluminescence quantum yield (in ClC(Cl)Cl): 0.22

Further lines, results first:

photoluminescence quantum yield (in ClCCl): 0.82
SMILES: Clc1cc(Cl)c(B2c3ccccc3Nc3ccccc32)c(Cl)c1

photoluminescence quantum yield (in C1CCOC1): 0.12 | photoluminescence quantum yield (in CO): 0.05
SMILES: CCOC(=O)C1=CN(c2ccccc2)C=CC1c1ccccc1 (stereo not given)

photoluminescence quantum yield (in C1CCCCC1): 0.86 | photoluminescence quantum yield (in CC#N): 0.94 | photoluminescence quantum yield (in CC(C)O): 0.9 | photoluminescence quantum yield (in CO): 0.68 | photoluminescence quantum yield (in CS(C)=O): 0.94 | photoluminescence quantum yield (in ClC(Cl)Cl): 0.98 | photoluminescence quantum yield (in c1ccccc1): 0.92
SMILES: CN(C)c1ccc2nc(-c3ccc(C(=O)OC[C@H](NC(=O)OC(C)(C)C)C(=O)OCc4ccccc4)cc3)sc2c1

photoluminescence quantum yield (in ClC(Cl)Cl): 0.08
SMILES: O=Cc1ccc(C#CC(C#Cc2ccc(C=O)s2)=Cc2ccc(C=C(C#Cc3ccc(C=O)s3)C#Cc3ccc(C=O)s3)cc2)s1

photoluminescence quantum yield (in C1CCCCC1): 0.56 | photoluminescence quantum yield (in C1CCOC1): 0.65 | photoluminescence quantum yield (in C1COCCO1): 0.6 | photoluminescence quantum yield (in CC#N): 0.41 | photoluminescence quantum yield (in CCCCCCC): 0.43 | photoluminescence quantum yield (in CCO): 0.49 | photoluminescence quantum yield (in CN(C)C=O): 0.6 | photoluminescence quantum yield (in CO): 0.34 | photoluminescence quantum yield (in O): 0.18 | photoluminescence quantum yield (in OCCO): 0.45
SMILES: Cc1nn(-c2ccccc2)c(C2=NN(c3ccc(Br)cc3)[C@@H](c3ccccc3)[C@@H]2c2ccccc2)c1C#N

photoluminescence quantum yield (in ClCCl): 0.121
SMILES: CCCCCCOc1cc(N(CC)CC)ccc1/C=C/C(=C(C#N)C#N)c1ccc2c(c1)c1ccccc1n2CC

photoluminescence quantum yield (in C1CCCCC1): 0.006 | photoluminescence quantum yield (in CC#N): 0.043 | photoluminescence quantum yield (in CCO): 0.0033 | photoluminescence quantum yield (in c1ccccc1): 0.13
SMILES: Nc1ccc2c(c1)-c1ccccc1C2=O

photoluminescence quantum yield (in ClC(Cl)Cl): 0.33
SMILES: Clc1ccc(-c2nc(-c3ccccc3)sc2N(c2ccccc2)c2ccccc2)cc1

photoluminescence quantum yield (in ClCCl): 0.86
SMILES: C(=C\c1ccc(N(c2ccccc2)c2ccccc2)cc1)/c1ccc(-c2ccc(/C=C/c3ccc(N(c4ccccc4)c4ccccc4)cc3)cc2)cc1

photoluminescence quantum yield (in C1CCOC1): 0.67
SMILES: COc1cc2c(cc1-c1ccc(C)cc1)Cc1c3c(c4c(c1-2)-c1cc(OC)c(-c2ccc(C)cc2)cc1C4)C(=O)N(CCC(C)C)C3=O

photoluminescence quantum yield (in c1ccccc1): 0.526
SMILES: CN(C)c1ccc2nc(-c3ccccc3)c(=O)oc2c1

photoluminescence quantum yield (in CCO): 0.05 | photoluminescence quantum yield (in ClCCl): 0.57
SMILES: N#Cc1ncc(-c2c3ccccc3c(-c3cnc(C#N)nc3)c3ccccc23)cn1

photoluminescence quantum yield (in ClC(Cl)Cl): 0.12
SMILES: Cc1ccc(/C2=c3\cc/c(o3)=C(\c3ccc(C)cc3)c3ccc([nH]3)-c3ccc4n3[B-](F)(F)[N+]3=C(C=CC3=C4c3ccc[nH]3)c3ccc2[nH]3)cc1

photoluminescence quantum yield (in C1CCCCC1): 0.9
SMILES: CCCC1(CCC)c2cc(-c3ccc(C(C)(C)C)cc3)ccc2-c2ccc(-c3ccc4c(c3)C(CCC)(CCC)c3cc(-c5ccc6c(c5)C(CCC)(CCC)c5cc(-c7ccc(C(C)(C)C)cc7)ccc5-6)ccc3-4)cc21

photoluminescence quantum yield (in CC#N): 0.018 | photoluminescence quantum yield (in ClCCl): 0.538
SMILES: Cc1cc(O)c(C(=O)/C=C/c2ccc(N(C)C)cc2)c(=O)o1

photoluminescence quantum yield (in ClCCl): 0.72
SMILES: CN(C)c1ccc(-c2cc(-c3ccc(N(C)C)cc3)ncn2)cc1

photoluminescence quantum yield (in CC#N): 0.97 | photoluminescence quantum yield (in CO): 0.74 | photoluminescence quantum yield (in CS(C)=O): 0.12 | photoluminescence quantum yield (in ClC(Cl)Cl): 1
SMILES: O=C1c2ccccc2C2=Cc3ccccc3B(O)N12

photoluminescence quantum yield (in ClC(Cl)Cl): 0.19
SMILES: N#CC(C#N)=Cc1ccc(-c2ccc(N(c3ccccc3)c3ccccc3)cc2)cc1

photoluminescence quantum yield (in CCO): 0.04 | photoluminescence quantum yield (in ClCCl): 0.0001
SMILES: N#Cc1cnc(-c2c3ccccc3c(-c3ccccc3)c3ccccc23)nc1

photoluminescence quantum yield (in CCO): 0.11 | photoluminescence quantum yield (in CO): 0.09 | photoluminescence quantum yield (in CS(C)=O): 0.23
SMILES: CN1/C(=C/C=C(/C=C/C2=[N+](C)c3ccccc3C2(C)C)c2ccc(C(F)(F)F)cc2)C(C)(C)c2ccccc21

photoluminescence quantum yield (in C1CCCCC1): 0.46 | photoluminescence quantum yield (in CC#N): 0.55 | photoluminescence quantum yield (in CO): 0.39 | photoluminescence quantum yield (in ClCCl): 0.41
SMILES: COc1c2ccccc2c(OC)c2c1c1ccccc1n2C

— the Deep4Chem optical property database
